# From article PMC6743424, “Phenolic acid phenethylesters and their corresponding ketones: Inhibition of 5‐lipoxygenase and stability in human blood and HepaRG cells” (Pharmacology Research & Perspectives, 2019)
# Columns and labels:
# [1] = Stability of inhibitory activity after incubation in whole blood; format: in vitro ADME, human; conditions: 3 μmol/L in whole blood up to 240 minutes before zymosan; LTB4
# Method: Figure 4 Stability of the test compounds for the inhibition of the biosynthesis of 5‐LO products following incubation in plasma or in whole blood. (A) Test compounds were incubated (30 µmol/L) in human plasma for the indicated times at 37°C. Plasma (50 µL) containing the test compounds was then added to 450 µL of PMNL (10^7 cells/mL) which were then stimulated with 1 μmol/L of thapsigargin for 15 minutes at 37°C. The stimulation was then stopped, samples were processed, and 5‐LO products were measured using RP‐HPLC. (B) Whole blood was incubated in the presence of 3 μmol/L of test compounds or with their diluent (control, DMSO 0.1%) for the indicated times and was then stimulated with opsonized zymosan (4 mg/mL) for 30 minutes at 37°C. Blood was then centrifuged and plasma was collected and added to 1.2 mL of CH3OH:CH3CN (1:1). Samples were processed for analysis using RP‐HPLC for LTB4 quantification. All data are expressed as means ± SEM of at least three independent experiments. *Difference from time = 0, as determined using One‐way ANOVA with Dunnett's multiple comparison test (P < .05)
# 5‐LO = target: T1, 5‐LO (Homo sapiens, UniProt P09917); assay: Biosynthesis of 5‐LO products in thapsigargin‐stimulated human PMNL; format: cell-based; parameters: endogenous in cells; host or cells: human polymorphonuclear leukocytes isolated from heparinized blood; conditions: for Inhibition of LT biosynthesis in human PMNL: 1 μmol/L, 5 min, 1 μmol/L thapsigargin 15 min; for IC50: 5‐LO product biosynthesis in human PMNL, mean (95% confidence interval)
# T1 sequence (P09917 1-674): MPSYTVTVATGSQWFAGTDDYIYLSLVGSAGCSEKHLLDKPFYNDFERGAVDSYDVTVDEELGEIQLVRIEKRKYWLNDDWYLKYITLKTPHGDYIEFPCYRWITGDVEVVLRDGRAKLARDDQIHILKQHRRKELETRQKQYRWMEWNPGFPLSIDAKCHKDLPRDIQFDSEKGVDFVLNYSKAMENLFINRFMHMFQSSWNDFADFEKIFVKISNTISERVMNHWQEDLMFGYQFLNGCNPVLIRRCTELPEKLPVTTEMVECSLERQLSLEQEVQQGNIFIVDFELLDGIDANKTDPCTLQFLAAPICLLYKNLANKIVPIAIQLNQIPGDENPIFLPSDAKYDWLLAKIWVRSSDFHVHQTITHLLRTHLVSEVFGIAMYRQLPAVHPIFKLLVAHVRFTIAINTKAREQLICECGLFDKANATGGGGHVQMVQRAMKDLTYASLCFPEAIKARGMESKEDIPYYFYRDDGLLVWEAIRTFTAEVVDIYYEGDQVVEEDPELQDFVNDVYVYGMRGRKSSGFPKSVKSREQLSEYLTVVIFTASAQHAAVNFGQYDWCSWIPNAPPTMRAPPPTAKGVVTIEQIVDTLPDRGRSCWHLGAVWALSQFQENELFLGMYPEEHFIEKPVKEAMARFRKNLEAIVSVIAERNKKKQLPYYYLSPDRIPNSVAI
# Method: Heparinized blood (see Ethics statement) was collected, centrifuged at 200g for 10 minutes to collect plasma, and erythrocytes were sedimented in dextran. PMNL were obtained after centrifugation on a lymphocyte separation medium cushion (density, 1.077 g/mL) (Wisent) at 900 g for 20 minutes, followed by hypotonic lysis to remove residual erythrocytes.33 PMNL were counted and resuspended at 10^7 cells/mL in HBSS supplemented with 1.6 mmol/L CaCl2 and 0.3 U/mL adenosine deaminase (Sigma‐Aldrich). PMNL were preincubated with the test compounds or their diluent (0.1% DMSO) for 5 minutes at 37°C and were then stimulated with 1 µmol/L thapsigargin (Sigma‐Aldrich) for 15 minutes at 37°C.27 Reactions were stopped by adding two volumes of CH3OH:CH3CN (1:1) containing the internal standard PGB2 (100 ng/mL), and samples were processed for RP‐HPLC analysis of 5‐LO products.
# (A) The structures of CAPE (2) and its analogues investigated in this study. (B) Isolated human PMNL were incubated in presence of test compounds (1 μmol/L) or their diluent (Control, 0.1% DMSO) for 5 minutes. PMNL were stimulated with 1 μmol/L of thapsigargin for 15 minutes at 37°C. The stimulation was then stopped, and samples were processed for analysis of 5‐LO products using RP‐HPLC. Total 5‐LO products measured represent LTB4, its trans isomers, 20‐OH‐LTB4, 20‐COOH‐LTB4 and 5‐hydroxyeicosatetraenoic acid. Data are expressed as means ± SEM of at least three independent experiments. *Difference from control, as determined using one‐way ANOVA with Dunnett's multiple comparison test (P < .05)
# HepaRG cells = assay: Residual inhibition of 5‐LO product biosynthesis in blood after incubation with HepaRG cells; format: in vitro ADME, human; conditions: for Inhibitory activity against 5‐LO product biosynthesis after incubation with HepaRG cells: 50 µmol/L with HepaRG cells, after 60 minutes, medium added to blood, zymosan, LTB4
# Method: Differentiated HepaRG cells, plated in 24 well plates, were washed with hepatocyte suspension medium (Williams E‐medium without phenol red, supplemented with 2 mmol/L Glutamax and […] HEPES) before addition of hepatocyte suspension medium (250 µL/well) containing (30 or 50 µmol/L) of the test compounds or their diluent. Cells were then incubated for 7.5, 15, 30, 60 or 90 minutes at 37°C after which the medium was removed.
# In experiments where the inhibitory capacity of test compounds was to be determined after incubation with HepaRG cells, 125 µL of the hepatocyte suspension medium containing test compounds that had been collected at different time points from HepaRG cultures was added to 1 mL of heparinized blood. After a 5 minutes of preincubation, blood was then stimulated with opsonized zymosan and processed for HPLC analysis of 5‐LO metabolites as described above.
# Figure 6 Stability of the test compounds for the inhibition of the biosynthesis of 5‐LO products following incubation with HepaRG cells. HepaRG cells were incubated with […] of hepatocyte suspension medium containing 50 µmol/L of test compounds for the indicated times at 37°C. Hepatocyte suspension medium (125 µL) was then removed and added to 1 mL of blood that was then incubated for 5 minutes and then stimulated with opsonized zymosan (4 mg/mL) for 30 minutes at 37°C. Blood was then centrifuged and plasma was collected and added to 1.2 mL of CH3OH:CH3CN (1:1). Samples were processed for analysis using RP‐HPLC for LTB4 quantification. Data are expressed as means ± SEM of at least three independent experiments. *Difference from time = 0, as determined using One‐way ANOVA with Dunnett's multiple comparison test (P < .05)
Inhibition of LT biosynthesis in human PMNL (5‐LO),IC50 (5‐LO) [µM],Inhibitory activity against 5‐LO product biosynthesis after incubation with HepaRG cells (HepaRG cells),Inhibitory activity retained after incubation in HepaRG cultures (HepaRG cells; after up to one hour of incubation) [%],Structure (SMILES),Stability of inhibitory activity after incubation in whole blood [1]
near complete inhibition,0.52,lost all their inhibitory activity,–,O=C(/C=C/c1ccc(O)c(O)c1)CCCc1ccccc1 [compound 7],complete loss of inhibitory activity after 240 minutes
–,0.51,lost all their inhibitory activity,–,O=C(/C=C/c1cc(O)ccc1O)CCc1ccccc1 [compound 8],–
near complete inhibition,0.41,maintained significant inhibition,50,"COc1cc(/C=C/C(=O)CCc2ccccc2)cc(OC)c1O [compound 10, sinapic acid phenethyl ketone]",near complete retention of inhibitory activity
near complete inhibition,0.32,lost all their inhibitory activity,–,O=C(/C=C/c1cc(O)ccc1O)OCCc1ccccc1 [compound 5],–
–,0.97,lost all their inhibitory activity,–,"O=C(/C=C/c1ccc(O)c(O)c1)OCCc1ccccc1 [CAPE (2), caffeic acid phenethyl ester, reference compound]",complete loss of inhibitory activity after 240 minutes
